Data on 12 molecules can be found in ChEMBL document CHEMBL1201862, “PubChem BioAssay data set” (2004).

Some test systems named below: MOLT-4; NCI-H23; HCC 2998; OVCAR-4; SN12C; A498; SW-620; SR; RXF 393; Malme-3M; M14; KM12; HL-60; HT-29; HOP-62; UO-31; CCRF-CEM; K562; SK-MEL-5; NCI/ADR-RES.
Test in all cases: NCI anticancer screen, dose series, 48 h

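Following 48 hours of exposure in 96-well plates, responses at five concentrations were used to interpolate endpoints linearly. Here, GI50 denotes the concentration required for 50% inhibition of growth.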 Active and inactive are the calls of the source. Rule as the data show it: active = GI50 up to about 1.1 µM and inactive = higher. A value given as a limit tells only on which side of the number the result lay.

Turning to `Nc1ccc2c(c1)C(=O)N(O)C2=O`, the GI50 in the assay with MOLT-4 is > 100 µM (inactive); with NCI-H23, > 100 µM (inactive); in the assay on HCC 2998, 92 µM (inactive); in the assay with OVCAR-4 it was > 100 µM (inactive); in the assay on SN12C it was > 100 µM (inactive); with A498, > 100 µM (inactive). Further, the GI50 with SW-620, in the assay with SR, with RXF 393, in the assay on Malme-3M, with M14 and in the assay with KM12 was > 100 µM (inactive) each time. In addition, the GI50 in the assay with HL-60, with HT-29, with HOP-62, with UO-31, with CCRF-CEM and in the assay on K562 was > 100 µM (inactive) throughout.
As to `Cc1ccc2c(c1)C(=O)N(N(C)C)CC(=O)N2`, the GI50 in the assay with MOLT-4, in the assay on NCI-H23, in the assay with HCC 2998, in the assay on OVCAR-4, in the assay with SK-MEL-5 and in the assay on A498 was > 100 µM (inactive) in each case. Further, the GI50 with SW-620, in the assay with SR, with Malme-3M, in the assay on M14, with KM12 and in the assay on HL-60 was > 100 µM (inactive) in each case. For the same molecule, the GI50 in the assay with HT-29, in the assay on HOP-62, in the assay on UO-31, in the assay with CCRF-CEM and with K562 was > 100 µM (inactive) in each case.
With `COC(=O)C1=CSC2(S1)C(C(=O)OC)=CSc1c2ssc1=O` (configuration not stated), the GI50 in the assay with MOLT-4 is 1.97 µM (inactive); in the assay with NCI-H23 it was 2 µM (inactive); in the assay on HCC 2998, 3.01 µM (inactive); with OVCAR-4, 1.15 µM (inactive); in the assay with SK-MEL-5 it was 2.24 µM (inactive); with SN12C, 2.12 µM (inactive). Besides, the GI50 was 6.28 µM (inactive) with A498; 2.87 µM (inactive) in the assay on NCI/ADR-RES; 1.33 µM (inactive) with SW-620; 1.92 µM (inactive) with RXF 393; 2 µM (inactive) in the assay with Malme-3M; 2.5 µM (inactive) in the assay on M14. The GI50 was 3.9 µM (inactive) in the assay on KM12; 1.6 µM (inactive) in the assay on HL-60; 1.81 µM (inactive) in the assay on HT-29; 3.06 µM (inactive) in the assay with HOP-62; 1.84 µM (inactive) with UO-31; 0.762 µM (active) in the assay on CCRF-CEM. Besides, the GI50 with K562 was 1.95 µM (inactive).
With `CN(C)/C(=N\C#N)NCc1ccccc1`, the GI50 with NCI-H23, in the assay with HCC 2998, with OVCAR-4, with SK-MEL-5, in the assay with SN12C and in the assay with SW-620 was > 100 µM (inactive) throughout. Moreover, the GI50 with M14, in the assay with KM12, in the assay on HT-29, with HOP-62 and with UO-31 was > 100 µM (inactive) in each case.
With `O=c1ccc2nc3cc(Br)ccc3sc-2c1`, the GI50 with MOLT-4 was 21.7 µM (inactive); in the assay on NCI-H23 it was > 100 µM (inactive); in the assay with HCC 2998, > 100 µM (inactive); in the assay with OVCAR-4, 29.4 µM (inactive); with SK-MEL-5, 62.8 µM (inactive); in the assay on SN12C it was > 100 µM (inactive). Besides, the GI50 in the assay on SW-620 is > 100 µM (inactive); in the assay with SR, 33 µM (inactive); in the assay with Malme-3M, > 100 µM (inactive); in the assay on M14 it was > 100 µM (inactive); in the assay with KM12 it was > 100 µM (inactive); in the assay with HL-60 it was 13.5 µM (inactive). Moreover, the GI50 is > 100 µM (inactive) in the assay on HT-29; > 100 µM (inactive) in the assay with HOP-62; > 100 µM (inactive) in the assay on UO-31; 12.9 µM (inactive) in the assay on CCRF-CEM; 22.4 µM (inactive) in the assay on K562.
Consider `CNC(=O)CNC(=O)CCC(=O)N(C)C`, for which the GI50 with MOLT-4, with NCI-H23, in the assay on HCC 2998, in the assay with SK-MEL-5, in the assay with SN12C and in the assay on A498 was > 100 µM (inactive) each time. Besides, the GI50 in the assay on NCI/ADR-RES, with SW-620, in the assay with Malme-3M, with M14, in the assay on KM12 and in the assay on HL-60 was > 100 µM (inactive) each time. The GI50 in the assay on HT-29, in the assay on HOP-62, in the assay on UO-31, in the assay with CCRF-CEM and in the assay with K562 was > 100 µM (inactive) each time.
Turning to `COC1CCC(O)C(CO)O1` (configuration not stated), the GI50 in the assay with MOLT-4 was 27.6 µM (inactive); in the assay with NCI-H23 it was > 100 µM (inactive); in the assay with HCC 2998 it was > 100 µM (inactive); with OVCAR-4, > 100 µM (inactive); in the assay on SK-MEL-5 it was > 100 µM (inactive); in the assay with SN12C, > 100 µM (inactive). The GI50 in the assay on SW-620 is 24.3 µM (inactive); in the assay on SR, 45.3 µM (inactive); in the assay on RXF 393, > 100 µM (inactive); with Malme-3M, 20.5 µM (inactive); with M14, 43.2 µM (inactive); with KM12, > 100 µM (inactive). The GI50 is 31.7 µM (inactive) in the assay with HL-60; > 100 µM (inactive) in the assay with HT-29; > 100 µM (inactive) in the assay on HOP-62; > 100 µM (inactive) in the assay with UO-31; 10.9 µM (inactive) in the assay with CCRF-CEM; 11.2 µM (inactive) in the assay on K562.
On to `CN(C)C(=O)OCOC(=O)N(C)C`, for which the GI50 in the assay with MOLT-4 was > 100 µM (inactive); in the assay on NCI-H23, > 100 µM (inactive); in the assay with HCC 2998, > 91.8 µM (inactive); with OVCAR-4, > 100 µM (inactive); with SK-MEL-5 it was > 100 µM (inactive); with SN12C, > 100 µM (inactive). In addition, the GI50 in the assay with A498, with NCI/ADR-RES, with SW-620, in the assay with RXF 393, with Malme-3M and with KM12 was > 100 µM (inactive) in each case. Moreover, the GI50 was > 31.6 µM (inactive) in the assay with HL-60; > 100 µM (inactive) in the assay on HT-29; > 100 µM (inactive) in the assay on HOP-62; > 100 µM (inactive) in the assay on UO-31; > 100 µM (inactive) with CCRF-CEM; > 100 µM (inactive) in the assay on K562.
`CC1(C)OC2CC(=O)OCC23C1CC(=O)C1(C)C3CCC2(C)C(c3ccoc3)OC(=O)C3OC321` (configuration not stated): the GI50 in the assay with MOLT-4 is > 125 µM (inactive); with NCI-H23, > 125 µM (inactive); in the assay with HCC 2998 it was > 125 µM (inactive); with OVCAR-4 it was > 125 µM (inactive); in the assay on SK-MEL-5, > 125 µM (inactive); in the assay on SN12C, > 39.5 µM (inactive). The GI50 with A498 is > 125 µM (inactive); in the assay with NCI/ADR-RES it was > 125 µM (inactive); in the assay on SW-620, > 125 µM (inactive); with RXF 393, > 117 µM (inactive); in the assay on Malme-3M, 123 µM (inactive); in the assay on KM12 it was > 125 µM (inactive). The GI50 with HL-60 is 101 µM (inactive); with HT-29, > 125 µM (inactive); with HOP-62, > 125 µM (inactive); with UO-31 it was > 125 µM (inactive); in the assay on CCRF-CEM it was > 125 µM (inactive); with K562, 78.9 µM (inactive).
Consider `CCCCn1/c(=N/C(=S)N(C)C)ss/c1=N\C(=S)N(C)C`, for which the GI50 with MOLT-4, with NCI-H23, in the assay on HCC 2998, in the assay with OVCAR-4, with SN12C and in the assay on A498 was > 100 µM (inactive) in each case. Moreover, the GI50 in the assay with SW-620, in the assay with SR, in the assay on RXF 393, in the assay with Malme-3M, in the assay with M14 and in the assay on KM12 was > 100 µM (inactive) each time. Also, the GI50 in the assay on HL-60, in the assay with HT-29, in the assay with HOP-62, in the assay with UO-31, with CCRF-CEM and in the assay on K562 was > 100 µM (inactive) in each case.
With `O=C(CCC1C(=O)NC(=S)NC1=O)c1ccc2ccccc2c1`, the GI50 in the assay on MOLT-4, in the assay with NCI-H23, in the assay with HCC 2998, in the assay on OVCAR-4, in the assay on SK-MEL-5 and with SN12C was > 100 µM (inactive) in each case. In addition, the GI50 with A498, with SW-620, in the assay with SR, in the assay on RXF 393, with Malme-3M and with M14 was > 100 µM (inactive) each time. Also, the GI50 in the assay with KM12, in the assay with HL-60, in the assay on HT-29, in the assay with HOP-62, with UO-31 and in the assay with CCRF-CEM was > 100 µM (inactive) each time. Besides, the GI50 with K562 was > 100 µM (inactive).
Consider `COc1cc(C2c3cc4c(cc3[C@@H](Nc3ccc5c(c3)OCO5)C3COC(=O)[C@H]23)OCO4)cc(OC)c1O` (some centres not stated), for which the GI50 was < 0.0136 µM (active) in the assay with MOLT-4; 0.303 µM (active) with NCI-H23; 1.42 µM (inactive) with HCC 2998; 0.63 µM (active) with SK-MEL-5; 0.643 µM (active) in the assay with SN12C; 0.333 µM (active) with A498. The GI50 is 0.482 µM (active) in the assay on NCI/ADR-RES; 1.2 µM (inactive) in the assay with SW-620; 1.09 µM (active) in the assay with RXF 393; 1.42 µM (inactive) with Malme-3M; 1.79 µM (inactive) in the assay with KM12; 0.043 µM (active) in the assay on HL-60. The GI50 in the assay with HT-29 was 1.24 µM (inactive); with HOP-62 it was 0.177 µM (active); in the assay on UO-31, 0.382 µM (active); in the assay with CCRF-CEM, 0.0641 µM (active); with K562 it was 0.721 µM (active).
